Here are results for 3 compounds from patent US20150175545A1, “Preparation Method of Fluoro-Substituted Deuterated Diphenylurea” (SUZHOU ZELGEN BIOPHARMACEUTICAL CO., LTD, priority 2012, published 2015).

Values joined by “and” are separate entries in the source; they are usually repeats but may differ in a detail not shown here. Equal values may be shown once. Read-outs that look alike come from different tables or passages of the source.

The nature of data set [1]: Pharmacokinetic evaluation of CM4309.TsOH, CM4309.HCl and CM4309.H2O in SD rats. The class given is in vivo. Conditions: for AUCINF_obs / AUClast / Cmax / HL_Lambda_z / MRTINF_obs / Tmax / AUC(0-t) / AUC(0-inf) / MRT inf: 3 mg/kg (calculated by CM4309) intragastric, suspension in 0.5% CMC, CM4309 in plasma; for AUClast (Area Under Curve, Plasma Exposure) relative to CM4309.H2O / Cmax relative to CM4309.H2O: SD rats, 3 mg/kg intragastric, ratio to CM4309.H2O; for AUC(0-inf): read-out: AUCINF_obs; for MRT inf: read-out: MRTINF_obs. Here is the method: Twelve male SD rats, weighing about 170 g, were randomly separated into […] and four rats in each group, and fasted overnight. The rats were administrated intragastric ally at a dose of 3 mg/kg (in a concentration of 1 mg/mL calculated by CM4309, and suspended in 0.5% CMC in purified water) of CM4309.TsOH, CM4309.HCl or CM4309.H2O. After administration, blood samples were collected at 0.25, 0.5, 1, 2, 4, 6, 8, 12, 24, 36 and 48 h. The blood samples were centrifuged for 5 minutes at 5000 rpm to separate the plasma. The concentration of CM4309 in plasma was measured by LC/MS/MS to compare the PK difference between CM4309 salts and CM4309 (see Table 1).

The nature of data set [2]: Pharmacokinetic evaluation of CM4309.TsOH and CM4309.H2O in Beagle dogs. The class given is in vivo. As to conditions: for AUClast / Cmax / Tmax / AUC(0-t): 2.5 mg/kg (calculated by CM4309) oral in capsule, 2×2 crossover, CM4309 in plasma. Here is the method:
Four female Beagle dogs, 7-9 months old, weighing about 8 kg, were randomly separated into two groups and two dogs in each group, and fasted overnight. The dogs were administrated orally at a dose of 2.5 mg/kg (calculated by CM4309) of CM4309.TsOH or CM4309.H2O in capsule with 2×2 crossover design. Blood samples were collected before administration and at 0.25, 0.5, 1, 2, 4, 6, 8, 12, 24, 36 and 48 h after administration. The blood samples were centrifuged for 10 minutes at 3500 rpm to separate the plasma. The concentration of CM4309 in plasma was measured by LC/MS/MS to compare the PK difference between CM4309 salts and CM4309 (see Table 2).

Setting [3] is: individual rat, hydrochloride, 3 mg/kg.
Where [4] appears, read: male, SD, rat, plasma, po, 3 mg/kg, Mean of 4 rats.
The mark [5] stands for this setting: male, SD, rat, plasma, po, 3 mg/kg, Mean of 4 rats, read-out: Cmax.
The mark [6] stands for this setting: male, SD, rat, plasma, po, 3 mg/kg, Mean of 4 rats, read-out: Tmax.
Setting [7] is: male, SD, rat, plasma, po, 3 mg/kg, individual rat.
Setting [8] is: male, SD, rat, plasma, po, 3 mg/kg, individual rat, read-out: Tmax.
The mark [9] stands for this setting: individual rat, p-toluenesulfonate, 3 mg/kg.
The mark [10] stands for this setting: Beagle dogs, 2.5 mg/kg oral in capsule, ratio to CM4309.H2O.
Where [11] appears, read: individual dog, p-toluenesulfonate, 2.5 mg/kg.

As a reminder, the Cmax is the maximum level reached in the sampled fluid or tissue. Broadly, the Tmax is the time at which the peak concentration occurs. For the compound `[2H]C([2H])([2H])NC(=O)c1cc(Oc2ccc(NC(=O)Nc3ccc(Cl)c(C(F)(F)F)c3)c(F)c2)ccn1` [CM4309.H2O], in data set [1] (Mean of 4 rats), the AUCINF_obs is 664 ng·h/mL, the AUClast is 643 ng·h/mL, the Cmax is 45.2 ng/mL and the HL_Lambda_z was 7.62 h. Besides, in data set [1] (Mean of 4 rats), the MRTINF_obs was 13.55 h and the Tmax is reported as 6.5 h. Further, in data set [1] (individual rat, 3 mg/kg), the AUCINF_obs is 701 ng·h/mL and 827 ng·h/mL and 657 ng·h/mL and 470 ng·h/mL; the AUClast was 675 ng·h/mL and 806 ng·h/mL and 635 ng·h/mL and 459 ng·h/mL; the maximum concentration (Cmax) is 52.6 ng/mL and 53.3 ng/mL and 42.9 ng/mL and 31.8 ng/mL; the HL_Lambda_z was 8.73 h and 9.26 h and 6.41 h and 6.08 h. Also, in data set [1] (individual rat, 3 mg/kg), the MRTINF_obs is 14.87 h and 14.06 h and 13 h and 12.25 h; the Tmax is 6 h and 4 h and 8 h. In data set [2] (Mean of 4 dogs), the AUClast is 404 ng·h/mL, the Cmax is 28 ng/mL and the Tmax is 20 h. In data set [2] (individual dog, 2.5 mg/kg), the AUClast was 319 ng·h/mL and 829 ng·h/mL and 243 ng·h/mL and 224 ng·h/mL; the Cmax was 34.6 ng/mL and 50 ng/mL and 11.1 ng/mL and 16.4 ng/mL; the Tmax was 24 h and 8 h.
As usually defined, the AUC(0-t) is the area under the concentration-time curve up to a stated or last time point. Regarding `Cl.[2H]C([2H])([2H])NC(=O)c1cc(Oc2ccc(NC(=O)Nc3ccc(Cl)c(C(F)(F)F)c3)c(F)c2)ccn1` [CM4309.HCl, 4-(4-(3-(4-chloro-3-(trifluoromethyl)phenyl]ureido)-3-fluorophenoxy)-N-(methyl-d3)picolinamide hydrochloride], the HL_Lambda_z in data set [1] (Mean of 4 rats) is reported as 8.25 h. In data set [1], the “AUClast (Area Under Curve, Plasma Exposure) relative to CM4309.H2O” value was 8.7 folds and the “Cmax relative to CM4309.H2O” value came to 8.4 folds. Besides, in data set [1] (setting [3]), the AUCINF_obs was 6634 ng·h/mL and 7151 ng·h/mL and 4379 ng·h/mL; the AUClast is 6514 ng·h/mL and 7021 ng·h/mL and 4258 ng·h/mL; the Cmax was 457 ng/mL and 460 ng/mL and 281 ng/mL; the HL_Lambda_z was 8.17 h and 7.77 h and 8.32 h and 8.74 h. Moreover, in data set [1] (setting [3]), the MRTINF_obs was 12.93 h and 12.58 h and 15.62 h; the Tmax is listed as 8 h. For the same compound, the Tmax in data set [1] (male, SD, in vivo, po, individual rat, read-out: Tmax) was 4 h. In data set [1] (setting [4]), the area under the curve AUC(0-t) is 5570 ng·h/mL, the AUC(0-inf) was 5690 ng·h/mL and the MRT inf is 13.8 h. In addition, the Cmax in data set [1] (setting [5]) was 379 ng/mL. Also, in data set [1] (setting [6]), the Tmax was 5.5 h. Besides, in data set [1] (setting [7]), the area under the curve AUC(0-t) is 4490 ng·h/mL, the AUC(0-inf) was 4610 ng·h/mL and the MRT inf is 13.9 h. The Cmax in data set [1] (male, SD, rat, plasma, po, 3 mg/kg, individual rat, read-out: Cmax) is 316 ng/mL. Moreover, the Tmax in data set [1] (setting [8]) is 6 h.
On to `Cc1ccc(S(=O)(=O)O)cc1.[2H]C([2H])([2H])NC(=O)c1cc(Oc2ccc(NC(=O)Nc3ccc(Cl)c(C(F)(F)F)c3)c(F)c2)ccn1` [CM4309.TsOH, 4-(4-(3-(4-chloro-3-(trifluoromethyl)phenyl]ureido)-3-fluorophenoxy)-N-(methyl-d3)picolinamide p-toluenesulfonate], for which the HL_Lambda_z in data set [1] (Mean of 4 rats) is 7.91 h; in data set [1] (setting [9]), 8.55 h and 7.37 h and 7.48 h and 8.25 h. For the same compound, in data set [1], the “AUClast (Area Under Curve, Plasma Exposure) relative to CM4309.H2O” value worked out at 11.2 folds. For the same compound, the “Cmax relative to CM4309.H2O” value in data set [1] is given as 10.7 folds; in data set [2] (setting [10]) it was 26 folds. Besides, the AUCINF_obs in data set [1] (setting [9]) was 5631 ng·h/mL and 7380 ng·h/mL and 10651 ng·h/mL. Besides, the AUClast is 5542 ng·h/mL and 7237 ng·h/mL and 10406 ng·h/mL in data set [1] (setting [9]); 5362 ng·h/mL and 5045 ng·h/mL and 3827 ng·h/mL in data set [2] (setting [11]). In addition, the Cmax was 312 ng/mL and 402 ng/mL and 518 ng/mL and 696 ng/mL in data set [1] (setting [9]); 482 ng/mL in data set [1] (setting [5]); 728 ng/mL in data set [2] (female, Beagle, dog, plasma, po, 2.5 mg/kg, Mean of 4 dogs, read-out: Cmax); 996 ng/mL and 437 ng/mL and 483 ng/mL in data set [2] (setting [11]). Further, the MRTINF_obs in data set [1] (setting [9]) is 12.05 h and 12.72 h and 13.6 h. The Tmax in data set [1] (setting [9]) was 4 h; in data set [1] (setting [6]) it was 5.5 h; in data set [1] (setting [8]), 6 h; in data set [2] (female, Beagle, individual dog, read-out: Tmax), 2 h. In addition, the AUC(0-t) is 7180 ng·h/mL in data set [1] (setting [4]); 5540 ng·h/mL in data set [1] (setting [7]); 4870 ng·h/mL in data set [2] (female, Beagle, dog, plasma, po, 2.5 mg/kg, Mean of 4 dogs); 5240 ng·h/mL in data set [2] (female, Beagle, dog, plasma, po, 2.5 mg/kg, individual dog). For the same compound, the AUC(0-inf) in data set [1] (setting [4]) is 7340 ng·h/mL; in data set [1] (setting [7]), 5700 ng·h/mL. In addition, the MRT inf in data set [1] (setting [4]) was 13.3 h; in data set [1] (setting [7]), 14.8 h. Moreover, the “AUClast relative to CM4309.H2O” value in data set [2] (setting [10]) stood at 12.1 folds.
